In BindingDB's records for doi:10.1002/(SICI)1098-2396(200002)35:2<79::AID-SYN1>3.0.CO;2-X (Institut De Recherches Servier, 2000):
Several values for one entry are separate records, joined by “and”; a condition that tells them apart may be missing. Equal entries are not always repeated. Each block holds one compound with its values, some of them ahead of it.

Key:
D(2) dopamine receptor = D(2) dopamine receptor (Homo sapiens, UniProt P14416)
[1] = molecular target: 5-hydroxytryptamine receptor 1B (Cavia porcellus, UniProt O08892)
[2] = molecular target: 5-hydroxytryptamine receptor 1D (Homo sapiens, UniProt P28221)
[3] = molecular target: T1, Alpha-2A adrenergic receptor (Homo sapiens, UniProt P08913)
T1 sequence (P08913 whole entry): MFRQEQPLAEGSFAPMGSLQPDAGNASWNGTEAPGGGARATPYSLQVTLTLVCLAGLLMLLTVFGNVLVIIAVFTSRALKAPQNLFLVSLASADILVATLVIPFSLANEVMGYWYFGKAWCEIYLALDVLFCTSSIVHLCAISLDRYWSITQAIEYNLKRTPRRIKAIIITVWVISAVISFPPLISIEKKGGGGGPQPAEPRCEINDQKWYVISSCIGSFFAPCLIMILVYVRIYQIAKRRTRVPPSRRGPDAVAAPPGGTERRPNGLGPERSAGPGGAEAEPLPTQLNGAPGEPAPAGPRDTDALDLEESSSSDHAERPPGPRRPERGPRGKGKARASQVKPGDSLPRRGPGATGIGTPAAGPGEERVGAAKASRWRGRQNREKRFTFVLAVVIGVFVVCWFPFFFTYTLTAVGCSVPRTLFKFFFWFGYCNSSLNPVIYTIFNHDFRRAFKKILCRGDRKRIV

[4] = molecular target: T2, 5-hydroxytryptamine receptor 3A (Mus musculus, UniProt P23979)
T2 sequence (P23979 whole entry): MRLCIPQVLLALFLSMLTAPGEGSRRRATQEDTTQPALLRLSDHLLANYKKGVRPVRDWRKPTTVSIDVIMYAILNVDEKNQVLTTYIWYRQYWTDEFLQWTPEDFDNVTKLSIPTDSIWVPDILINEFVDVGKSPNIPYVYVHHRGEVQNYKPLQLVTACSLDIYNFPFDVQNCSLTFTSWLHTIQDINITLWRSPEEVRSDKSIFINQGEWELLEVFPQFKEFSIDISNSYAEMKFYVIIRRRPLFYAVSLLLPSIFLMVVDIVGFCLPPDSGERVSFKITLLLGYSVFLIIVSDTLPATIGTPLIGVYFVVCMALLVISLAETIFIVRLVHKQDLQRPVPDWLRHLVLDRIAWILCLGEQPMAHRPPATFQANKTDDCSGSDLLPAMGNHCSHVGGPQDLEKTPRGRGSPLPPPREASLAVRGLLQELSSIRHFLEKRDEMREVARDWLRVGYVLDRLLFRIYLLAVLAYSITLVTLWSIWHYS

[5] = molecular target: T3, 5-hydroxytryptamine receptor 2C (Sus scrofa, UniProt K7GSR7)
T3 sequence (K7GSR7 whole entry): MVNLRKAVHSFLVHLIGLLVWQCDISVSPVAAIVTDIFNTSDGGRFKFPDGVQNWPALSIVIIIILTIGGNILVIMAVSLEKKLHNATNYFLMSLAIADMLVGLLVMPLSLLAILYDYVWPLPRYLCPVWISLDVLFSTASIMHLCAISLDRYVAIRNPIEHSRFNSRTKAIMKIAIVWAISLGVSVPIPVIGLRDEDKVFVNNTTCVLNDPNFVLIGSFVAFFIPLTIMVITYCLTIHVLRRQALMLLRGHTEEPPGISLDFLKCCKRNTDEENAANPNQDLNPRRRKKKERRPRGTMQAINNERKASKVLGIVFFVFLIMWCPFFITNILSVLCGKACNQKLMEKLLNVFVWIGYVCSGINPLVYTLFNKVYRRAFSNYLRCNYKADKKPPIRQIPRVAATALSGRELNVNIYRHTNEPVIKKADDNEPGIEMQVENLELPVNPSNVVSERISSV

5-hydroxytryptamine receptor 1B, sequence (O08892 whole entry): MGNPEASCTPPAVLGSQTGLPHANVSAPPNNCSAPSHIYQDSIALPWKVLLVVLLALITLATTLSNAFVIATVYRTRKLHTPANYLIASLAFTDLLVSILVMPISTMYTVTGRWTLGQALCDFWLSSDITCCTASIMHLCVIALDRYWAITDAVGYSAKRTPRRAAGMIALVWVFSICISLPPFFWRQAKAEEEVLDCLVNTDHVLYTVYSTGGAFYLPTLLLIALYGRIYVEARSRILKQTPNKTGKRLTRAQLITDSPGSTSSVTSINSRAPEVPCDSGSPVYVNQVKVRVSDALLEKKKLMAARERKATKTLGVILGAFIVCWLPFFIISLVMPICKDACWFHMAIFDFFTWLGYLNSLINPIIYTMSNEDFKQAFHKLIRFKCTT
5-hydroxytryptamine receptor 1D, sequence (P28221 whole entry): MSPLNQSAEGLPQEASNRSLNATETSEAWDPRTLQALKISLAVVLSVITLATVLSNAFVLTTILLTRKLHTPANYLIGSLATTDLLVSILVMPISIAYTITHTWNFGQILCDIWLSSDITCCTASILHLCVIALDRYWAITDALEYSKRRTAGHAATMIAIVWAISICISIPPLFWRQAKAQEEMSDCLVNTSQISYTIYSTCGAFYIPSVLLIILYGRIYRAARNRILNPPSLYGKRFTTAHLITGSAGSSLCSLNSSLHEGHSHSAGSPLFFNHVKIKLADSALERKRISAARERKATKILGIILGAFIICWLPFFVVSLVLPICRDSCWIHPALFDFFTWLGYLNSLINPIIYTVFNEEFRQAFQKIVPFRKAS
D(2) dopamine receptor, sequence (P14416 whole entry): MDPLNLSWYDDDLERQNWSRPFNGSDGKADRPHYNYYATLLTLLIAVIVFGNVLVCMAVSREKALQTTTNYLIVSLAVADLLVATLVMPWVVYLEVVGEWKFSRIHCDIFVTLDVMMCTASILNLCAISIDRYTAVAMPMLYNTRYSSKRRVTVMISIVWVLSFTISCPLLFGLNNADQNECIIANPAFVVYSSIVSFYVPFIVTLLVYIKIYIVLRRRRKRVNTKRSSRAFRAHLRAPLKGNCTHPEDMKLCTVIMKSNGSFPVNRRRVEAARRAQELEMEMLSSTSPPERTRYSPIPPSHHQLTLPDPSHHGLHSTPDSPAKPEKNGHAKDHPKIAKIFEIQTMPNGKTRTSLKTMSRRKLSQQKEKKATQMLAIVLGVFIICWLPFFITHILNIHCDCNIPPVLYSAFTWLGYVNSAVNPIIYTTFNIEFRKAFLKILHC

Compound: COC(=O)[C@@H]1[C@H]2C[C@H]3c4[nH]c5ccccc5c4CCN3C[C@@H]2CC[C@@H]1O [yohimbic acid methyl ester]
Ki (D(2) dopamine receptor): 398 nM
Ki [1]: 50.1 nM
Ki [2]: 19.9 nM and 25.1 nM

Ki [3]: 1 nM
Compound: COC1(C2=NCCN2)COc2ccccc2O1 (configuration not stated) [RX821002]

Compound: NCCc1c[nH]c2ccc(O)cc12 [[3H]-5-HT]
Ki [1]: 2.51 nM

Ki [4]: 3.98 nM
Compound: Cc1nccn1CC1CCc2c(c3ccccc3n2C)C1=O (configuration not stated) [NSC_68647]

Compound: NCCc1c[nH]c2ccccc12 [1H-indole-3-ethanamine]
Ki [5]: 79.4 nM
